Measurements as given in ChEMBL document CHEMBL1128572, “Synthesis and biology of 1D-3-deoxyphosphatidylinositol: a putative antimetabolite of phosphatidylinositol-3-phosphate and an inhibitor of cancer cell colony formation” (J Med Chem, 1995).

What was measured:
[1] = Inhibition of murine Phosphatidylinositol 3-kinase; set-up: species or system Mus musculus
HT-29 = assay: Inhibition of colony formation of […] human colon carcinoma cell lines; type: functional, cell-based
[2] = Inhibition of murine Phosphatidylinositol 3-kinase (No effect); set-up: species or system Mus musculus

| Compound | IC50 [1] | IC50 (HT-29) | IC50 [2] |
| --- | --- | --- | --- |
| CCCCCCCCCCCCCCCC(=O)OCC(COP(=O)(O)OC1C(O)C(O)C(O)C(F)C1O)OC(=O)CCCCCCCCCCCCCCC (centres undefined) | 30 µM | 37 µM |  |
| CCCCCCCCCCCCCCCC(=O)OCC(COP(=O)(O)O[C@H]1[C@@H](O)[C@@H](O)[C@H](O)C[C@H]1O)OC(=O)CCCCCCCCCCCCCCC (some centres undefined) |  | 35 µM | Not Active |
